The values below are quoted from earlier work in US10325677B2, “Apparatus and computerized method for optimizing or generating a sigma profile for a molecule” (Texas Tech University System, priority 2014, dated 2019).

For this data set the following is noted: published in the literature.

Consider `Cn1c(=O)c2c(ncn2C)n(C)c1=O` [Caffeine, caffeine], for which the “NRTL-SAC Conceptual Segment Number X” value is −0.105, the “NRTL-SAC Conceptual Segment Number Y^+” value is listed as 1.211, the “NRTL-SAC Conceptual Segment Number Y^−” value is 0.282 and the “NRTL-SAC Conceptual Segment Number Z” value was 0.211.
